Tests used:
[1] = biological target: T1, hNET (Homo sapiens, UniProt P23975); experiment: hNET membrane radioligand binding assay (3H-nisoxetine), Assay 1
Method: Membrane radioligand binding assays were used to measure inhibition of labeled ligand (^3H-citalopram or ^3H-nisoxetine or ^3H-WIN35428) binding to membranes prepared from cells expressing the respective human recombinant transporter (hSERT or hNET or hDAT) in order to determine the pKi values of test compounds at the transporters.
Recombinant human embryonic kidney (HEK-293) derived cell lines stably transfected with hSERT or hNET, respectively, were grown in DMEM medium supplemented with 10% dialyzed FBS (for hSERT) or FBS (for hNET), 100 μg/mL penicillin, 100 μg/mL streptomycin, 2 mM L-glutamine and 250 μg/mL of the aminoglycoside antibiotic G418, in a 5% CO2 humidified incubator at 37° C. When cultures reached 80% confluence, the cells were washed thoroughly in PBS (without Ca^2+ and Mg^2+) and lifted with 5 mM EDTA in PBS. Cells were pelleted by centrifugation, resuspended in lysis buffer (10 mM Tris-HCl, pH7.5 containing 1 mM EDTA), homogenized, pelleted by centrifugation, then resuspended in 50 mM Tris-HCl, pH 7.5 and 10% sucrose at 4° C. Protein concentration of the membrane suspension was determined using a Bio-Rad Bradford Protein Assay kit. Membranes were snap frozen and stored at −80° C.
Binding assays were performed in a 96-well assay plate in a total volume of 200 μl assay buffer (50 mM Tris-HCl, 120 mM NaCl, 5 mM KCl, pH 7.4) with 0.5, 1, and 3 μg membrane protein, for SERT, NET and DAT, respectively.
Stock solutions (10 mM in DMSO) of test compound were prepared and serial dilutions made using Dilution Buffer (50 mM Tris-HCl, 120 mM NaCl, 5 mM KCl, pH 7.4, 0.1% BSA, 400 μM ascorbic acid).
Following a 60 minute incubation at 22° C. (or a period sufficient to reach equilibrium), the membranes were harvested by rapid filtration over a 96-well UniFilter GF/B plate, pretreated with 0.3% polyethyleneimine, and washed 6 times with 300 μl wash buffer (50 mM Tris-HCl, 0.9% NaCl, pH 7.5 at 4° C.). Plates were dried overnight at room temperature, approximately 45 μl of MicroScint™-20 (Perkin Elmer) added and bound radioactivity quantitated via liquid scintillation spectroscopy. Inhibition curves and saturation isotherms were analyzed using GraphPad Prism Software package (GraphPad Software, Inc., San Diego, Calif.). IC50 values were generated from concentration response curves using the Sigmoidal Dose Response (variable slope) algorithm in Prism GraphPad.

[2] = biological target: T1, hNET; experiment: hNET neurotransmitter uptake assay (3H-NE), Assay 2; type: cell-based; set-up: expressed in transfected cells; host or cells: HEK-293; conditions: norepinephrine reuptake inhibition, 3H-NE uptake, HEK-293 hNET cells (values without asterisk); read-out: NET pIC50 (converted)
[3] = biological target: T2, hSERT (Homo sapiens, UniProt P31645); experiment: hSERT membrane radioligand binding assay (3H-citalopram), Assay 1; conditions: SERT pKi, hSERT HEK-293 membranes, 1.0 nM 3H-citalopram; values given as lower bounds
[4] = biological target: T2, hSERT; experiment: hSERT neurotransmitter uptake assay (3H-5-HT), Assay 2; type: cell-based; set-up: expressed in transfected cells; host or cells: HEK-293; conditions: serotonin reuptake inhibition, 3H-5-HT uptake, HEK-293 hSERT cells (values without asterisk); read-out: SERT pIC50 (converted)

T1 sequence (P23975 whole entry): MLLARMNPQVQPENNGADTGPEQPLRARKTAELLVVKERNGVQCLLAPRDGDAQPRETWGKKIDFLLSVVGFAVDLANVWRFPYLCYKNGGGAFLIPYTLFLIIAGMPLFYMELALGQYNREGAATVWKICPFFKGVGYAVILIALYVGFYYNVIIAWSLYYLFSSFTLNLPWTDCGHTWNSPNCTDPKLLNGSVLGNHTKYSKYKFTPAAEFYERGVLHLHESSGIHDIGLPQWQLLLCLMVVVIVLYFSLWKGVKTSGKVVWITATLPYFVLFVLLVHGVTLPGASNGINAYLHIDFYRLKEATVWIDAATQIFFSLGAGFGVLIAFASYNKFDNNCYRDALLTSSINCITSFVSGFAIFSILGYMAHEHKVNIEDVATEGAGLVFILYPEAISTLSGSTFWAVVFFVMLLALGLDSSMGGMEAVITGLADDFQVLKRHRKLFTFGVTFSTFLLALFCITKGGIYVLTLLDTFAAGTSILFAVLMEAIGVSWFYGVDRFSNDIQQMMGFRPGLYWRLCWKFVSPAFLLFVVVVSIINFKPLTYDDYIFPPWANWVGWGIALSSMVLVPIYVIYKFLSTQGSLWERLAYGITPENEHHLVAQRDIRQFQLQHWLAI
T2 sequence (P31645 whole entry): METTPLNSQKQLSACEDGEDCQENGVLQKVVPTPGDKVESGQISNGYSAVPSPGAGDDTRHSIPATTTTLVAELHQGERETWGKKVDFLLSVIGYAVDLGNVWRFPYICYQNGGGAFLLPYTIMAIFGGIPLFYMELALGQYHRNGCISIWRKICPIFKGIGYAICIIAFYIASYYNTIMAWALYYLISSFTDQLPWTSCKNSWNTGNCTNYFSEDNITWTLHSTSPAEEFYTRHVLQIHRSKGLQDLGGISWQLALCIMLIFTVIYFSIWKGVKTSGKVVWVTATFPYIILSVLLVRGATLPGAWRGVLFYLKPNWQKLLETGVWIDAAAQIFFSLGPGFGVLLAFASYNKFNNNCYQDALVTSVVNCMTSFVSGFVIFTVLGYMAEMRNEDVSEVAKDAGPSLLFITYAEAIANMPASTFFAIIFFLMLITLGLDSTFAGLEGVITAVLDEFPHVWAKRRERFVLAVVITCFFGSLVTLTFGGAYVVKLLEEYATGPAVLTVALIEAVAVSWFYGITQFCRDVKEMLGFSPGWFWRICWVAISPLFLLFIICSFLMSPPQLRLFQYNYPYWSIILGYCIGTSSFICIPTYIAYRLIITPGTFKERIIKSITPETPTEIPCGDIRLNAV

Row | Ki [1] | IC50 [2] | Ki [3] | IC50 [4] | SMILES
1 | ≤ 10 nM | ≤ 10 nM | ≤ 10 nM | ≤ 10 nM | CC(C)C[C@H](Oc1ccc(Cl)c(F)c1F)[C@H]1CCNC1 [Example 10-68, (S)-3-[(S)-1-(4-Chloro-2,3-difluorophenoxy)-3-methylbutyl]pyrrolidine]
2 | ≤ 10 nM | ≤ 10 nM | ≤ 10 nM | ≤ 10 nM | CC(C)C[C@H](Oc1c(Cl)ccc(Cl)c1F)[C@H]1CCNC1 [Example 10-69, (S)-3-[(S)-1-(3,6-Dichloro-2-fluorophenoxy)-3-methylbutyl]pyrrolidine]
3 | ≤ 10 nM | ≤ 10 nM | ≤ 10 nM | ≤ 10 nM | CC(C)CC(Oc1ccc(Cl)c(F)c1)C1CCNC1 (stereo not drawn) [Example 10-70, 3-[1-(4-Chloro-3-fluorophenoxy)-3-methylbutyl]pyrrolidine]
4 | ≤ 10 nM | ≤ 10 nM | ≤ 10 nM | ≤ 10 nM | CC(C)C[C@@H](Oc1ccc(Cl)c(Cl)c1)[C@H]1CCNC1 [Example 10-73, (S)-3-[(R)-1-(3,4-Dichlorophenoxy)-3-methylbutyl]pyrrolidine]
5 | ≤ 10 nM | ≤ 10 nM | ≤ 10 nM | ≤ 10 nM | CC(C)C[C@H](Oc1cc(Cl)cc(Cl)c1)[C@H]1CCNC1 [Example 10-77, (S)-3-[(S)-1-(3,5-Dichlorophenoxy)-3-methylbutyl]pyrrolidine]
6 | ≤ 10 nM | ≤ 10 nM | ≤ 10 nM | ≤ 10 nM | CC(C)CC(Oc1cc(Cl)cc(Cl)c1)C1CCNC1 (stereo not drawn) [Example 10-78, 3-[1-(3,5-Dichlorophenoxy)-3-methylbutyl]pyrrolidine]
7 | ≤ 10 nM | ≤ 10 nM | ≤ 10 nM | ≤ 10 nM | CC(C)C[C@@H](Oc1cc(Cl)cc(Cl)c1)[C@H]1CCNC1 [Example 10-79, (S)-3-[(R)-1-(3,5-Dichlorophenoxy)-3-methylbutyl]pyrrolidine]
8 | ≤ 10 nM | ≤ 10 nM | ≤ 10 nM | ≤ 10 nM | CC(C)C[C@H](Oc1cc(F)cc(Cl)c1)[C@H]1CCNC1 [Example 10-81, (S)-3-[(S)-1-(3-Chloro-5-fluorophenoxy)-3-methylbutyl]pyrrolidine]
9 | ≤ 10 nM | ≤ 10 nM | ≤ 10 nM | ≤ 10 nM | CC(C)CC(Oc1cc(F)cc(Cl)c1)C1CCNC1 (stereo not drawn) [Example 10-82, 3-[1-(3-Chloro-5-fluorophenoxy)-3-methylbutyl]pyrrolidine]
10 | ≤ 10 nM | ≤ 10 nM | ≤ 10 nM | ≤ 10 nM | CC(C)CC(Oc1c(Cl)c(F)cc(F)c1Cl)C1CCNC1 (stereo not drawn) [Example 10-84, 3-[1-(2,6-Dichloro-3,5-difluorophenoxy)-3-methylbutyl]pyrrolidine]
11 | ≤ 10 nM | ≤ 10 nM | ≤ 10 nM | ≤ 10 nM | CC(C)C[C@H](Oc1c(F)c(F)cc(F)c1Cl)[C@H]1CCNC1 [Example 10-86, (S)-3-[(S)-1-(2-Chloro-3,5,6-trifluorophenoxy)-3-methylbutyl]pyrrolidine]
12 | ≤ 10 nM | ≤ 10 nM | ≤ 10 nM | ≤ 10 nM | CC[C@H](Oc1cccc2ccccc12)[C@H]1CCNC1 [Example 13, (S)-3-[(s)-1-(Naphthalen-1-yloxy)propyl]pyrrolidine]
13 | ≤ 10 nM | ≤ 10 nM | ≤ 10 nM | ≤ 10 nM | CC[C@@H](Oc1cccc2ccccc12)[C@H]1CCNC1 [Example 14-1, (S)-3-[(R)-1-(Naphthalen-1-yloxy)propyl]pyrrolidine]
14 | ≤ 10 nM | ≤ 10 nM | ≤ 10 nM | ≤ 10 nM | CCC[C@@H](Oc1cccc2ccccc12)[C@H]1CCNC1 [Example 14-2, (S)-3-[(R)-1-(Naphthalen-1-yloxy)butyl]pyrrolidine]
15 | ≤ 10 nM | ≤ 10 nM | ≤ 10 nM | ≤ 10 nM | CCC[C@H](Oc1cccc2ccccc12)[C@H]1CCNC1 [Example 14-3, (S)-3-[(S)-1-(Naphthalen-1-yloxy)butyl]pyrrolidine]
16 | ≤ 10 nM | ≤ 10 nM | ≤ 10 nM | ≤ 10 nM | CC(C)[C@H](Oc1cccc2ccccc12)[C@H]1CCNC1 [Example 14-5, (S)-3-[(S)-2-Methyl-1-(naphthalen-1-yloxy)propyl]pyrrolidine]
17 | ≤ 10 nM | ≤ 10 nM | ≤ 100 nM | ≤ 316 nM | Cc1ccccc1O[C@@H](C1CC1)[C@H]1CCNC1 [Example 16-3, (S)-3-((S)cyclopropyl-o-tolyloxymethyl)pyrrolidine]
18 | ≤ 10 nM | ≤ 10 nM | ≤ 10 nM | ≤ 10 nM | Clc1cccc(O[C@H](C2CC2)[C@H]2CCNC2)c1Cl [Example 16-7, (S)-3-[(R)cyclopropyl-(2,3-dichlorophenoxy)methyl]pyrrolidine]
19 | ≤ 10 nM | ≤ 10 nM | ≤ 10 nM | ≤ 10 nM | Clc1cccc(O[C@@H](C2CC2)[C@H]2CCNC2)c1Cl [Example 16-8, (S)-3-[(S)cyclopropyl-(2,3-dichlorophenoxy)methyl]pyrrolidine]
20 | ≤ 10 nM | ≤ 10 nM | ≤ 10 nM | ≤ 100 nM | Fc1cccc(O[C@@H](C2CC2)[C@H]2CCNC2)c1Cl [Example 16-9, (S)-3-[(S)-(2-Chloro-3-fluorophenoxy)cyclopropylmethyl]pyrrolidine]
21 | ≤ 10 nM | ≤ 100 nM | ≤ 10 nM | ≤ 100 nM | Fc1cccc(O[C@H](C2CC2)[C@H]2CCNC2)c1Cl [Example 16-10, (S)-3-[(R)-(2-Chloro-3-fluorophenoxy)cyclopropylmethyl]pyrrolidine]
22 | ≤ 10 nM | ≤ 10 nM | ≤ 10 nM | ≤ 10 nM | FC(F)(F)c1c(Cl)cccc1O[C@@H](C1CC1)[C@H]1CCNC1 [Example 16-16, (S)-3-[(S)-(3-Chloro-2-trifluoromethylphenoxy)cyclopropylmethyl]pyrrolidine]
23 | ≤ 10 nM | ≤ 10 nM | ≤ 10 nM | ≤ 10 nM | Clc1ccc(O[C@@H](C2CC2)[C@H]2CCNC2)c(Cl)c1 [Example 16-19, (S)-3-[(S)cyclopropyl-(2,4-dichlorophenoxy)methyl]pyrrolidine]
24 | ≤ 10 nM | ≤ 10 nM | ≤ 10 nM | ≤ 100 nM | Fc1ccc(O[C@@H](C2CC2)[C@H]2CCNC2)c(Cl)c1 [Example 16-22, (S)-3-[(S)-(2-Chloro-4-fluorophenoxy)cyclopropylmethyl]pyrrolidine]
25 | ≤ 10 nM | ≤ 10 nM | ≤ 10 nM | ≤ 10 nM | Cc1ccc(O[C@@H](C2CC2)[C@H]2CCNC2)c(Cl)c1 [Example 16-23, (S)-3-[(S)-(2-Chloro-4-methylphenoxy)cyclopropylmethyl]pyrrolidine]
26 | ≤ 10 nM | ≤ 10 nM | ≤ 10 nM | ≤ 10 nM | Cc1ccc(O[C@@H](C2CC2)[C@H]2CCNC2)c(Br)c1 [Example 16-25, (S)-3-[(S)-(2-Bromo-4-methylphenoxy)cyclopropylmethyl]pyrrolidine]
27 | ≤ 10 nM | ≤ 10 nM | ≤ 10 nM | ≤ 10 nM | Cc1ccc(O[C@@H](C2CC2)[C@H]2CCNC2)c(C)c1 [Example 16-28, (S)-3-[(S)cyclopropyl-(2,4-dimethylphenoxy)-methyl]pyrrolidine]

Source: US7994209B2, “3-phenoxymethylpyrrolidine compounds” (Theravance, Inc., priority 2009, dated 2011)
